Data: patent US20260055141A1, “COMPOSITIONS AND METHODS FOR CONTROLLING FOOD INTAKE, ENERGY EXPENDITURE, AND BODY WEIGHT FOR THE TREATMENT OF OBESITY AND METABOLIC DISEASES” (The Trustees of the University of Pennsylvania, priority 2022, published 2026)
Like-named read-outs stand apart in the source and are kept apart here. Non-standard residues stand in square brackets, D forms with d. No end group written: not given here.

Legend:
[1] = Peripheral (IP) administration, food intake and body weight in DIO mice; assay type: in vivo, mouse; conditions: for 24 h food intake: IP 0.5 and 5 mg/kg, male HFD fed mice (FIG. 12 legend)
Experimental: DIO mice were administered 0.5 mg/kg or 5.0 mg/kg of either SU75-36 or SU75-37 in a vehicle by […] injection and observed over 24 hours. One group of mice was administered a vehicle as a negative control. All mice were given ad libitum access to water and a 60% HFD. […] (FIGS. 12A and 12C). […] Mice were weighed at the beginning of the experiment and 24 hours after administration. The weight change of each mouse after 24 hours was then calculated. […] (FIGS. 12B and 12D) This experiment was then repeated for SU75-37 at a higher dose (10 mg/kg). […] (FIG. 13A).

[2] = assay type: in vivo, rat; conditions: for food intake compared to control: SU75-36 20 or 200 μg, SU75-37 20 μg, 1, 3, 6, 24 h; for body weight change after 24 hours: any dosage, rats fed chow or HFD; for kaolin intake (pica, model of malaise and nausea): rat, in vivo
Experimental: Adult male Sprague-Dawley rats (Charles River) were individually housed under a 12 h-light: 12 h-dark cycle in a temperature and humidity-controlled satellite vivarium and had ad libitum access to water and chow (5001, LabDiet) or a 60% high fat diet (HFD): D12492, Research Diets) and when applicable had ad libitum access to kaolin pellets (K50001, Research Diets). Rats were exposed to kaolin for at least 5 days prior to measuring kaolin consumption in pica testing. Except for studies conducted in the bioDAQ, for all feeding studies rats were housed in hanging wire cages to allow for accurate measurement of food spillage. Experiments were conducted under the National Institutes for Health Guide for the Care and Use of Laboratory Animals and all procedures were approved by the Institutional Animal Care and Use Committee at the University of Pennsylvania.
For cannula implantation, rats were anesthetized by intraperitoneal injection of a mixture containing ketamine (90 mg/kg, Butler Animal Health Supply), xylazine (2.7 mg/kg, Anased), and acepromazine (0.64 mg/kg, Butler Animal Health Supply) (KAX) and then placed into a stereotaxic apparatus. Each rat was stereotaxically implanted with a guide cannula (26-ga, Plastics One) aimed at the fourth ventricle (guide cannula coordinates: on midline. 2.5 mm anterior to occipital suture, 5.2 mm ventral to skull; internal cannula aimed 7.2 mm ventral to skull) or the lateral ventricle (guide cannula coordinates: 1.5 mm lateral to midline, 0.9 mm posterior to bregma. 1.8 mm ventral to skull; internal cannula aimed 3.8 mm ventral to skull). For all cannulas, dummies (no projection beyond guide) were inserted in the guide cannula and left until infusions were performed. For all surgeries, rats received post-operative temperature support and analgesia was provided immediately following surgery and for two post-operative days (2 mg/kg meloxicam).
For all studies measuring food intake following drug treatment, central injections were given at a volume of 2 μL using a Hamilton syringe terminating in an injector tip extending 2.0 mm beyond the guide cannula. For acute treatment days, rats were food deprived for 2 hours before the dark cycle and injections were done immediately prior to the dark cycle onset. Food and kaolin intake was measured 1, 3, 6, and 24 hours after injections were completed and food crumbs were weighed and accounted for between each timepoint. Body weight was measured during injections and 24 hours after. Injection treatments were organized in a counterbalanced, within-subjects design and separated by ≥72 h.
In a separate experiment, chow maintained (n=10) and diet-induced obese (DIO) rats (n=12) were administered 20 μg SU75-36, 200 μg SU75-36, or 20 μg SU75-37 by intracerebroventricular injection to the lateral ventricle and observed over 24 hours. One group of rats was administered a vehicle without a GPR75 inhibitor as a negative control. All rats were given ad libitum access to access to water, kaolin pellets to assess pica behavior, and food, either a standard chow diet or a 60% high fat diet (HFD). The food intake of chow (FIG. 8A) or HFD (FIG. 8B), and kaolin take of chow-maintained rats (FIG. 8C) and HFD-maintained rats (FIG. 8D) of each rat was observed 1, 3, 6, and 24 hours after administration of the GPR75 inhibitor.
Rats were weighed at the beginning of the experiment and 24 hours after administration of the GPR75 inhibitor. The weight change of each rat after 24 hours was then calculated. […] (FIGS. 8E, 8F).

[3] = 5 mg/kg peripheral injection, DIO mice, 60% HFD, 3 and 24 h
[4] = lateral ventricle, chow and HFD rats

Row | Substance | food intake compared to control [1, 3] | body weight change after 24 hours ([1]; IP 10 mg/kg, HFD fed mice) | food intake compared to control ([1]; IP 10 mg/kg, HFD fed mice, 10 mg/kg) | food intake compared to control ([1]; IP 10 mg/kg, HFD fed mice, listed as 37, 10 mg/kg) | 24 h food intake [1] | food intake compared to control [2, 4] | body weight change after 24 hours ([2]; lateral ventricle) | kaolin intake (pica, model of malaise and nausea) [2] | body weight change after 24 hours ([1]; 0.5 or 5.0 mg/kg peripheral injection, DIO mice) | food intake compared to any of the other groups ([2]; lateral ventricle, 200 μg, chow and HFD rats)
1 | TFTSDLSKYLEEEVREFIWLKNGGPSDVNTDRPGLLDLK-NH2 [SU75-37] | significant decrease in food intake | significant decrease in weight | significant decrease in food intake | suppresses | suppresses | significant decrease in food intake | significant decrease in weight | absence of kaolin intake | – | –
2 | H[dS]QGTFTSDLSKYLEEEVREFIWLKNGGPSDVNTDRPGLLDLK-NH2 [SU75-36] | significant decrease in food intake | – | – | – | suppresses | significant decrease in food intake | significant decrease in weight | absence of kaolin intake | significant decrease in weight | further decrease
